Experiments:
[1] = test system: Mouse B16 melanoma cells (MM-4 cell line); assay: Cytotoxic/cytostatic activity of E2+85Rbe and antitumor drug added simultaneously; type: cell-based
Protocol: The effects of the complex action of various doses of the investigated substances were evaluated using the concept of synergistic, additive and antagonistic effects of the drugs. The mathematics are detailed below. […] The effects were calculated using the Chou-Talalay method according to the following equation (“CI” refers to the “combination index”) (see T.-C. […] Where both the ^85Rb-enriched rubidium salt (referred to as “E2+^85Rbe”) and an AD were administered, they were administered simultaneously.

[2] = test system: Mouse melanoma cells (MM-4 cell line); assay: Cytotoxic effect of E2+85Rbe and antitumor drug added 24 hours apart; type: cell-based
Protocol: The effectiveness of the method of the invention that comprises administering antitumor drugs and ^85Rb-enriched rubidium salt of N-benzoyl-N-(4-toluenesulfonyl)-o-phenylenediamine of formula I was measured in the experiment. […] Both orders were tested: AD administered first (Scheme 2, below), and AD administered second (Scheme 1, below).
Materials and Methods: Mouse melanoma cells (MM-4 cell line) were seeded into 96-well plates (TPP, Italy), in DMEM (Biowest, France) supplemented with 10% newborn calf serum (Biowest, France) and […] gentamicin (Sigma, USA) at a seeding density of 5×10^4 cells/ml. The cells were then cultured in an incubator with a humidified atmosphere of 5% CO2 in air at 37° C. The experiment was carried out in accordance with the three schemes given below. The experiment was started 24 hours after the cells were seeded. For this purpose, the agents used in the method were introduced into the appropriate wells. The following schemes of introduction were used for the study:
Scheme 1) The ^85Rb-enriched rubidium salt of N-benzoyl-N′-(4-toluenesulfonyl)-o-phenylenediamine of formula I was introduced at the first stage in the following amounts: 2.0 μg/ml, 1.0 μg/ml, 0, 5 μg/ml, and one antitumor drug was introduced at the second stage (after 24 hours).
Scheme 2) An AD was introduced at the first stage at doses as indicated in Scheme 1 above and ^85Rb-enriched rubidium salt of N-benzoyl-N′-(4-toluenesulfonyl)-o-phenylenediamine of formula I was introduced at the second stage (after 24 hours) at the following doses: 2.0 μg/ml, 1.0 μg/ml, 0.5 μg/ml.
After all the agents were added into the wells, the cells were incubated at 37° C. and 5% CO2 for another 72 hours (96 hours in total after the cells were seeded).
As in example 2, the cytotoxic effect was determined as the percentage of the cell number with respect to the control after their treatment in accordance with the claimed method. The effects of the drugs were evaluated visually, which allowed us to examine the morphological pattern of the cytotoxic action of the drugs, and by staining the cells with crystal violet, followed by OD measurement at an excitation wavelength of 540 nm using a MultiSkan microplate spectrophotometer.
The effects of the complex action of various doses of the investigated substances were evaluated using the concept of synergistic, additive and antagonistic effects of the drugs, as for Example 2, and calculating CI as described in Example 2.
Each table sets forth the % of MM-4 cells that survived in the presence of the drug doses indicated in the in vitro experiments described above, expressed as a percentage of the cells in the control wells.

## CN(C)/N=N/c1[nH]cnc1C(N)=O [dacarbazine]
[1]; dacarbazine 2.5 μg/ml alone
  % surviving MM-4 cells: 21 ± 2.4%
[1]; dacarbazine 5 μg/ml alone
  % surviving MM-4 cells: 18.1 ± 0.2%
[1]; dacarbazine 10 μg/ml alone
  % surviving MM-4 cells: 11.6 ± 3%
[1]; dacarbazine 20 μg/ml alone
  % surviving MM-4 cells: 7.8 ± 0.5%
[1]; dacarbazine 40 μg/ml alone
  % surviving MM-4 cells: 3.5 ± 0.7%
[2]; dacarbazine 2.5 μg/ml alone, first stage
  % surviving MM-4 cells: 21 ± 2.4%
[2]; dacarbazine 2.5 μg/ml alone, second stage
  % surviving MM-4 cells: 40.7 ± 0.7%
[2]; dacarbazine 5 μg/ml alone, first stage
  % surviving MM-4 cells: 18.1 ± 0.2%
[2]; dacarbazine 5 μg/ml alone, second stage
  % surviving MM-4 cells: 30 ± 2.4%
[2]; dacarbazine 10 μg/ml alone, first stage
  % surviving MM-4 cells: 11.6 ± 3%
[2]; dacarbazine 10 μg/ml alone, second stage
  % surviving MM-4 cells: 19 ± 4%
[2]; dacarbazine 20 μg/ml alone, first stage
  % surviving MM-4 cells: 7.8 ± 0.5%
[2]; dacarbazine 20 μg/ml alone, second stage
  % surviving MM-4 cells: 12.9 ± 2.9%
[2]; dacarbazine 40 μg/ml alone, first stage
  % surviving MM-4 cells: 3.5 ± 0.7%
[2]; dacarbazine 40 μg/ml alone, second stage
  % surviving MM-4 cells: 8.4 ± 1.2%

## COc1cccc2c1C(=O)c1c(O)c3c(c(O)c1C2=O)C[C@@](O)(C(=O)CO)C[C@@H]3O[C@H]1C[C@H](N)[C@H](O)[C@H](C)O1 [doxorubicin]
[1]; doxorubicin 150 ng/ml alone
  % surviving MM-4 cells: 14.4 ± 1.1%
[1]; doxorubicin 175 ng/ml alone
  % surviving MM-4 cells: 13 ± 0.1%
[1]; doxorubicin 200 ng/ml alone
  % surviving MM-4 cells: 9.1 ± 1.1%
[1]; doxorubicin 300 ng/ml alone
  % surviving MM-4 cells: 3.1 ± 0.1%
[1]; doxorubicin 500 ng/ml alone
  % surviving MM-4 cells: 0%
[2]; doxorubicin 150 ng/ml alone, first stage
  % surviving MM-4 cells: 14.4 ± 1.1%
[2]; doxorubicin 150 ng/ml alone, second stage
  % surviving MM-4 cells: 35.5 ± 0.8%
[2]; doxorubicin 175 ng/ml alone, first stage
  % surviving MM-4 cells: 13 ± 0.1%
[2]; doxorubicin 200 ng/ml alone, first stage
  % surviving MM-4 cells: 9.1 ± 1.1%
[2]; doxorubicin 200 ng/ml alone, second stage
  % surviving MM-4 cells: 24.8 ± 5.5%
[2]; doxorubicin 300 ng/ml alone, first stage
  % surviving MM-4 cells: 3.1 ± 0.1%
[2]; doxorubicin 300 ng/ml alone, second stage
  % surviving MM-4 cells: 12.2 ± 0.5%
[2]; doxorubicin 500 ng/ml alone, first stage
  % surviving MM-4 cells: 0%
[2]; doxorubicin 500 ng/ml alone, second stage
  % surviving MM-4 cells: 5.3 ± 0.9%

## CC(=O)O[C@H]1C(=O)[C@@]2(C)[C@H]([C@H](OC(=O)c3ccccc3)[C@]3(O)C[C@H](OC(=O)[C@H](O)[C@@H](NC(=O)c4ccccc4)c4ccccc4)C(C)=C1C3(C)C)[C@]1(OC(C)=O)CO[C@@H]1C[C@@H]2O [paclitaxel]
[1]; paclitaxel 3 ng/ml alone
  % surviving MM-4 cells: 80 ± 2.3%
[1]; paclitaxel 7.5 ng/ml alone
  % surviving MM-4 cells: 33.4 ± 1.4%
[1]; paclitaxel 30 ng/ml alone
  % surviving MM-4 cells: 7 ± 0.8%
[1]; paclitaxel 3 μg/ml alone
  % surviving MM-4 cells: 1.9 ± 0.2%
[2]; paclitaxel 3 ng/ml alone, first stage
  % surviving MM-4 cells: 80 ± 2.3%
[2]; paclitaxel 3 ng/ml alone, second stage
  % surviving MM-4 cells: 87.7 ± 6.7%
[2]; paclitaxel 7.5 ng/ml alone, first stage
  % surviving MM-4 cells: 33.4 ± 1.4%
[2]; paclitaxel 7.5 ng/ml alone, second stage
  % surviving MM-4 cells: 49 ± 1%
[2]; paclitaxel 15 ng/ml alone, second stage
  % surviving MM-4 cells: 37 ± 4.5%
[2]; paclitaxel 30 ng/ml alone, first stage
  % surviving MM-4 cells: 7 ± 0.8%
[2]; paclitaxel 30 ng/ml alone, second stage
  % surviving MM-4 cells: 29.2 ± 4.4%
[2]; paclitaxel 3 μg/ml alone, first stage
  % surviving MM-4 cells: 1.9 ± 0.2%

## CCC1=C[C@@H]2CN(C1)Cc1c([nH]c3ccccc13)[C@@](C(=O)OC)(c1cc3c(cc1OC)N(C)[C@H]1[C@@](O)(C(=O)OC)[C@H](OC(C)=O)[C@]4(CC)C=CCN5CC[C@]31[C@@H]54)C2 [vinorelbine]
[1]; vinorelbine 1 ng/ml alone
  % surviving MM-4 cells: 10 ± 0.1%
[1]; vinorelbine 5 ng/ml alone
  % surviving MM-4 cells: 9.5 ± 0.5%
[1]; vinorelbine 25 ng/ml alone
  % surviving MM-4 cells: 2 ± 0.8%
[1]; vinorelbine 50 ng/ml alone
  % surviving MM-4 cells: 2 ± 1%
[1]; vinorelbine 200 ng/ml alone
  % surviving MM-4 cells: 1%
[2]; vinorelbine 1 ng/ml alone, first stage
  % surviving MM-4 cells: 10 ± 0.1%
[2]; vinorelbine 1 ng/ml alone, second stage
  % surviving MM-4 cells: 26 ± 2.5%
[2]; vinorelbine 5 ng/ml alone, first stage
  % surviving MM-4 cells: 9.5 ± 0.5%
[2]; vinorelbine 5 ng/ml alone, second stage
  % surviving MM-4 cells: 17.9 ± 0.9%
[2]; vinorelbine 25 ng/ml alone, first stage
  % surviving MM-4 cells: 2 ± 0.8%
[2]; vinorelbine 25 ng/ml alone, second stage
  % surviving MM-4 cells: 7.9 ± 0.5%
[2]; vinorelbine 50 ng/ml alone, first stage
  % surviving MM-4 cells: 2 ± 1%
[2]; vinorelbine 50 ng/ml alone, second stage
  % surviving MM-4 cells: 6.4 ± 0.4%
[2]; vinorelbine 200 ng/ml alone, first stage
  % surviving MM-4 cells: 1%
[2]; vinorelbine 200 ng/ml alone, second stage
  % surviving MM-4 cells: 5.6 ± 0.6%
